Data published in patent publication EP4748839A1 (CSPC Zhongqi Pharmaceutical Technology (Shijiazhuang) Co., …, priority 2023, dated 2025).

Key:
[1] = biological target: T1, GLP-1R (Homo sapiens, UniProt P43220); experiment: GLP-1R agonistic effect in GLP1R-cAmp-Luc cells (luciferase reporter; titled 'Enzymatic assay'); type: cell-based; conditions: for EC50: 4 hours incubation, firefly luciferin signal; for EC50 of Positive reference / EC50 of Compound of the Present Application: Positive reference is PF-06882961
T1 construct: expressed in transfected cells
T1 sequence (P43220 24-463, species assumed): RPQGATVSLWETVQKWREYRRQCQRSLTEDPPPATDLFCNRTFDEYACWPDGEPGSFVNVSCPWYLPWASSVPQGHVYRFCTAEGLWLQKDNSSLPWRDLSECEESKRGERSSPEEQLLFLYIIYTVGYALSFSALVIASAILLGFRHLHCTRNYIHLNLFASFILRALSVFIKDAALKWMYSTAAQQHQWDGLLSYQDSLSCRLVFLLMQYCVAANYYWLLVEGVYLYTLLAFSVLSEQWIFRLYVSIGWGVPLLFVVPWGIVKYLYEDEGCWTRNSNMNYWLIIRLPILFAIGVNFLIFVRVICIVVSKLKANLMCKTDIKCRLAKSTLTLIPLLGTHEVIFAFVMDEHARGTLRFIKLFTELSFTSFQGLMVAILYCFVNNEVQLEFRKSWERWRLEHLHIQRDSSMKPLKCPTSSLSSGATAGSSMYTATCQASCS
Protocol: The GLP-1R agonistic effects of the test compounds were determined using GLP1R-cAmp-Luc cells. 1) The test compound was dissolved in DMSO and mixed well until the test compound was completely dissolved. The test compounds were dissolved in DMSO to prepare 10 mM stock solutions. All compounds were diluted with DMEM medium (high sugar, Puromycin^+, Hygromycin B^+) to an initial concentration of 1250 nM, and then subjected to 5-fold serial dilution to a total of 7 concentration gradients. The GLP1R-cAmp-Luc cells were seeded in white-wall 96-well cell culture plates at a density of 1×10^5/mL, with 90 µL cell suspension per well; the test compound at each of the 7 concentration gradients was added at 10 µL per well, with the actual initial working concentration of 125 nM; and the cells were placed in a 37 °C, 5% CO2 cell incubator for 4 hours; 2) 100 µL of luciferin potassium salt solution diluted to 300 µg/mL in PBS was added to each well at a working concentration of 150 µg/mL and incubated at room temperature for 30 minutes; 3) fluorescence signals of firefly luciferin were measured with a multifunctional microplate reader (PerkinElmer, Nivo); and the fluorescence values were processed using GraphPad Prism software to calculate EC50 values.

[2] = biological target: hERG channel (Homo sapiens, UniProt Q12809); experiment: hERG test, automated patch-clamp in CHO cells stably expressing hERG; type: cell-based; conditions: human, CHO-hERG-DUO cells stably expressing hERG, hERG current inhibition, 0.37-30 µM, n = 2
Sequence of hERG channel (Q12809 whole entry): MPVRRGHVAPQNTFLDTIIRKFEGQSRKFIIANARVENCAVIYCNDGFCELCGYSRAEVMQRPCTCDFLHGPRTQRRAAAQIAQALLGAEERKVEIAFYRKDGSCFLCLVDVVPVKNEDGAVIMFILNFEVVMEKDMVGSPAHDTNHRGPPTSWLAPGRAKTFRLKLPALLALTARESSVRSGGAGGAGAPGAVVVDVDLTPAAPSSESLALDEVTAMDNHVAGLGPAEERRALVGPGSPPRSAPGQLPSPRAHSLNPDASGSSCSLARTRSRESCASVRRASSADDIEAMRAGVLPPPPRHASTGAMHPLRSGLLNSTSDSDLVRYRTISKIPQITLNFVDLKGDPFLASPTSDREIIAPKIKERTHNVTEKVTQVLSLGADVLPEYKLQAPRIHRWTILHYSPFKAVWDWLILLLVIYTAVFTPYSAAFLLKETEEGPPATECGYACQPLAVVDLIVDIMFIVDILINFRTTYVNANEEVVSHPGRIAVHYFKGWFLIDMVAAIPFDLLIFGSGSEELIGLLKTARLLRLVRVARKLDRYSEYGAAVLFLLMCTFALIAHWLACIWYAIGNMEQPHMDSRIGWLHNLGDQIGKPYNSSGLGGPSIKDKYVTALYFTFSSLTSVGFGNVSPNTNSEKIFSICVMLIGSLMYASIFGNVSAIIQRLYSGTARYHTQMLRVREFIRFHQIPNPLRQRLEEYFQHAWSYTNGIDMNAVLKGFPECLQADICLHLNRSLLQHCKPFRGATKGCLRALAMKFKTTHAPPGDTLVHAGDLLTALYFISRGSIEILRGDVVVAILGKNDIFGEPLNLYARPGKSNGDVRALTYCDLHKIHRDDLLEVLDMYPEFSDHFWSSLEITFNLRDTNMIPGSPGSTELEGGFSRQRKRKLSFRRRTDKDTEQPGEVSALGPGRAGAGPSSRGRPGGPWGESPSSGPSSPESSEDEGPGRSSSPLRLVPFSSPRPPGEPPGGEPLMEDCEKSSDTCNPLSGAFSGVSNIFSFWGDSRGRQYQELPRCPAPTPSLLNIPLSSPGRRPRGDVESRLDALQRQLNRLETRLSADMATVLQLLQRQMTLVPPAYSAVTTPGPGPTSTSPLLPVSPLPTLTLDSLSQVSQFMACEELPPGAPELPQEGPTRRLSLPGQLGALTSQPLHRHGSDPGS
Protocol: The potential inhibitory effects of the test compounds on the hERG channel were assessed using an automated patch-clamp system. In this study, the CHO cell line stably expressing the hERG gene was used, with Cisapride as the positive control.
The CHO-hERG-DUO cell line stably expressing the hERG channel was purchased from B'SYS GmbH. The cells were cultured in F12 (HAM) medium supplemented with 10%FBS, 100 U/mL penicillin-streptomycin, 100 µg/mL hygromycin, and 100 µg/mL G418. The cells were passaged three times per week and maintained at about 80% confluence.
The test compounds were dissolved in DMSO to prepare stock solutions at a final concentration of 10 mM; the stock solution was then serially diluted with DMSO in a 1: 3 ratio (3.33 mM, 1.11 mM and 0.37 mM); and the final concentrations of the test compounds were 30 µM, 10 µM, 3.33 µM, 1.11 µM and 0.37 µM.
A baseline was established using the blank vehicle. […] The hERG current was recorded for no less than 5 minutes to reach a steady state, and then 5 scans were captured. […] The experiments were performed in duplicate (n = 2) and hERG current inhibition by five concentrations of the compound were measured to determine the IC50.
The percent current inhibition was calculated using the following equation. […]
The IC50 was calculated using Graphpad Prism 8.0.

[3] = In vivo pharmacokinetic assay in mice; conditions: mouse; ICR mice (female), oral gavage 10 mg/kg, plasma
Protocol: Experimental animals: ICR mice (female, 22-25 g), purchased from Beijing Vital River Laboratory Animal Technology Co., Ltd.
Experimental procedure: ICR mice were administered the test compounds by gavage. Whole blood samples of the mice were collected at 15 min, 0.5 h, 1 h, 2 h, 4 h, 8 h and 24 h after administration and centrifuged to isolate plasma. The compound concentration was measured by LC-MS/MS, and pharmacokinetic parameters such as Area Under the Concentration-Time Curve (AUC) were calculated using Winnolin software.
Oral gavage dose: 10 mg/kg.
Measurement method: Quantitative analysis was carried out in the LC/MS/MS system after pretreatment with a protein precipitation method.

[4] = tested on: C57BL/6 hGLP1R transgenic mice; experiment: Determination of food intake inhibition rate; type: in vivo; conditions: C57BL/6 hGLP1R mice, gavage, 2mpk, administrated once
Protocol: The food intake of C57BL/6 hGLP1R transgenic mice in each cage was measured at 18:00 on the day before administration, and the remaining weight of food was measured at 8: 00 on the next day (day 0) The difference between the two measurements was recorded as the baseline food intake weight. The mice were randomly grouped (test compound group and vehicle group) according to the baseline food intake and body weight. The food intake and body weight of the mice at 0 h were measured before administration. The mice were administered by gavage at 20:00 on day 0, and then the food intake and body weight of the mice were measured at specific time points. The phase (within a defined period of time) food intake, phase food intake rate, cumulative (after administration to a specific time point) food intake, cumulative food intake rate and body weight were finally statistically analyzed to evaluate the food intake inhibitory effect of the compounds. Cumulative Food intake (g) = (mbefore)−(mafter). [formula]
"m before" is the weight of food before food intaking for the period of time, and "m after" is the weight of food after food intaking for the period of time. Food intake inhibition rate (%) = (1−(madministrationgroup)/(mvehiclegroup))*100. [formula]
"m administration group" is the cumulative food intake of the administration group during the period of time, and "m vehicle group" is the cumulative food intake of the vehicle group during the period of time.

| EC50 [1] [nM] | EC50 of Positive reference / EC50 of Compound of the Present Application [1] | AUC(0-t) [3] [ng·h/mL] | Structure (SMILES) | other results |
| --- | --- | --- | --- | --- |
| ≤ 1 | Ratio ≥10 | – | COc1cc(C(F)(F)F)ccc1COc1cccc(-c2cc(F)c(Cc3nc4ccc(C(=O)O)cc4n3C[C@@H]3CCO3)c3c2OCC3)n1 [Compound 71, (S)-2-((5-fluoro-7-(6-((2-methoxy-4-(trifluoromethyl)benzyl)oxy)pyridin-2-yl)-2,3-dihydrobenzofuran-4-yl)methyl)-1-(oxetan-2-ylmethyl)-1H-benzo[d]imidazole-6-carboxylic acid] | IC50 [2]: > 30000 nM |
| 1 to 5 | – | 6900 | COc1cc(C(=O)O)cc2c1nc(Cc1c(F)cc(-c3ccc(F)c(OCc4ccc(Cl)cc4F)c3)c3c1CCO3)n2C[C@@H]1CCO1 [Compound 105, (S)-2-((7-(3-((4-chloro-2-fluorobenzyl)oxy)-4-fluorophenyl)-5-fluoro-2,3-dihydrobenzofuran-4-yl)methyl)-4-methoxy-1-(oxetan-2-ylmethyl)-1H-benzo[d]imidazole-6-carboxylic acid] | – |
| ≤ 1 | – | 14100 | COc1cc(C(F)(F)F)ccc1COc1cccc(-c2cc(F)c(Cc3nc4c(OC)cc(C(=O)O)cc4n3CC3(CF)CC3)c3c2OCC3)n1 [Compound 89, 2-((5-Fluoro-7-(6-((2-methoxy-4-(trifluoromethyl)benzyl)oxy)pyridin-2-yl)-2,3-dihydrobenzofuran-4-yl)methyl)-1-((1-(fluoromethyl)cyclopropyl)methyl)-4-methoxy-1H-benzo[d]imidazole-6-carboxylic acid] | – |
| ≤ 1 | – | 8440 | COc1cc(C(=O)O)cc2c1nc(Cc1c(F)cc(-c3cccc(OCc4ccc(C#N)cc4F)n3)c3c1CCO3)n2CC1(CF)CC1 [Compound 93, 2-((7-(6-((4-Cyano-2-fluorobenzyl)oxy)pyridin-2-yl)-5-fluoro-2,3-dihydrobenzofuran-4-yl)methyl)-1-((1-(fluoromethyl)cyclopropyl)methyl)-4-methoxy-1H-benzo[d]imidazole-6-carboxylic acid] | – |
| 1 to 5 | – | 12700 | O=C(O)c1ccc2nc(Cc3c(F)cc(-c4cccc(OCc5ccc(Cl)cc5F)n4)c4c3CCO4)n(CC3(CF)CC3)c2c1 [Compound 14, 2-((7-(6-((4-chloro-2-fluorobenzyl)oxy)pyridin-2-yl)-5-fluoro-2,3-dihydrobenzofuran-4-yl)methyl)-1-((1-(fluoromethyl)cyclopropyl)methyl)-1H-benzo[d]imidazole-6-carboxylic acid] | – |
| ≤ 1 | Ratio ≥10 | 19500 | COc1cc(C(=O)O)cc2c1nc(Cc1c(F)cc(-c3ccc(F)c(OCc4ccc(C)cc4F)n3)c3c1CCO3)n2C[C@@H]1CCO1 [Compound 132, (S)-2-((7-(5-fluoro-6-((2-fluoro-4-methylbenzyl)oxy)pyridin-2-yl)-5-fluoro-2,3-dihydrobenzofuran-4-yl)methyl)-4-methoxy-1-(oxetan-2-ylmethyl)-1H-benzo[d]imidazole-6-carboxylic acid] | – |
| – | – | 23700 | COc1cc(C(=O)O)cc2c1nc(Cc1c(F)cc(-c3cccc(OCc4ccc(Cl)cc4F)n3)c3c1CCO3)n2CC1(CF)CC1 [Compound 92, 2-((7-(6-((4-Chloro-2-fluorobenzyl)oxy)pyridin-2-yl)-5-fluoro-2,3-dihydrobenzofuran-4-yl)methyl)-1-((1-(fluoromethyl)cyclopropyl)methyl)-4-methoxy-1H-benzo[d]imidazole-6-carboxylic acid] | – |
| ≤ 1 | Ratio ≥10 | 22500 | COc1cc(C(=O)O)cc2c1nc(Cc1c(F)cc(-c3ccc(F)c(OCc4ccc(Cl)cc4F)n3)c3c1CCO3)n2C[C@@H]1CCO1 [Compound 101, (S)-2-((7-(6-((4-chloro-2-fluorobenzyl)oxy)-5-fluoropyridin-2-yl)-5-fluoro-2,3-dihydrobenzofuran-4-yl)methyl)-4-methoxy-1-(oxetan-2-ylmethyl)-1H-benzo[d]imidazole-6-carboxylic acid] | cumulative food intake inhibition rate 0-2.5 hours ([4]; 0-2.5 hours): 97%; cumulative food intake inhibition rate 0-5 hours ([4]; 0-5 hours): 89%; cumulative food intake inhibition rate 0-12 hours ([4]; 0-12 hours): 75% |
| ≤ 1 | Ratio ≥10 | 8300 | COc1cc(C(=O)O)cc2c1nc(Cc1c(F)cc(-c3nc(OCc4ccc(Cl)cc4F)ncc3F)c3c1CCO3)n2C[C@@H]1CCO1 [Compound 118, (S)-2-((7-(2-((4-chloro-2-fluorobenzyl)oxy)-5-fluoropyrimidin-4-yl)-5-fluoro-2,3-dihydrobenzofuran-4-yl)methyl)-4-methoxy-1-(oxetan-2-ylmethyl)-1H-benzo[d]imidazole-6-carboxylic acid] | – |
| – | – | 14000 | COc1cc(C(F)(F)F)ccc1COc1cccc(-c2cc(F)c(Cc3nc4ccc(C(=O)O)cc4n3CC3(CF)CC3)c3c2OCC3)n1 [Compound 83, 2-((5-Fluoro-7-(6-((2-methoxy-4-(trifluoromethyl)benzyl)oxy)pyridin-2-yl)-2,3-dihydrobenzofuran-4-yl)methyl)-1-((1-(fluoromethyl)cyclopropyl)methyl)-1H-benzo[d]imidazole-6-carboxylic acid] | – |
| 1 to 5 | – | – | COc1cc(C(=O)O)cc2c1nc(Cc1c(F)cc(-c3ccc(Cl)c(OCc4ccc(Cl)cc4F)n3)c3c1CCO3)n2C[C@@H]1CCO1 [Compound 108, (S)-2-((7-(5-chloro-6-((4-chloro-2-fluorobenzyl)oxy)pyridin-2-yl)-5-fluoro-2,3-dihydrobenzofuran-4-yl)methyl)-4-methoxy-1-(oxetan-2-ylmethyl)-1H-benzo[d]imidazole-6-carboxylic acid] | – |
| 1 to 5 | – | – | COc1cc(C(=O)O)cc2c1nc(Cc1c(F)cc(-c3ccc(Br)c(OCc4ccc(Cl)cc4F)n3)c3c1CCO3)n2C[C@@H]1CCO1 [Compound 109, (S)-2-((7-(5-bromo-6-((4-chloro-2-fluorobenzyl)oxy)pyridin-2-yl)-5-fluoro-2,3-dihydrobenzofuran-4-yl)methyl)-4-methoxy-1-(oxetan-2-ylmethyl)-1H-benzo[d]imidazole-6-carboxylic acid] | – |

| Structure (SMILES) | EC50 [1] [nM] | EC50 of Positive reference / EC50 of Compound of the Present Application [1] | AUC(0-t) [3] [ng·h/mL] | other results |
| --- | --- | --- | --- | --- |
| COc1cc(C(=O)O)cc2c1nc(Cc1c(F)cc(-c3nc(OCc4ccc(C)cc4F)ncc3F)c3c1CCO3)n2C[C@@H]1CCO1 [Compound 134] | ≤ 1 | Ratio ≥10 | 15700 | – |
